Patent US8883826B2, “Alkynyl derivatives as modulators of metabotropic glutamate receptors” (Addex Pharma SA, priority 2004, dated 2014)

What follows are molecules tested against T1, mGluR5 (Rattus norvegicus, UniProt P31424) (assay: mGluR5 binding assay ([3H]-MPEP radioligand competition)). Details: competition with 3 nM [3H]-MPEP, rat brain cortical membranes, 1 h at 4 °C; mean of at least three independent experiments in duplicate.
T1 construct: tissue Charles River Laboratories; host or cells: rat brain cortex membranes (Sprague-Dawley)
Excerpt: Activity of compounds of the invention was examined following a radioligand binding technique using whole rat brain and tritiated 2-methyl-6-(phenylethynyl)-pyridine ([^3H]-MPEP) as a ligand following similar methods than those described in F. Gasparini et al. Bioorg. Med. Chem. Lett. 2002, 12, 407-409 and in J. F. Anderson et al. J. Pharmacol. Exp. Ther. 2002, 303, 3, 1044-1051.
Cortices were dissected out from brains of 200-300 g Sprague-Dawley rats (Charles River Laboratories, L'Arbresle, France). Tissues were homogenized in 10 volumes (vol/wt) of ice-cold 50 mM Hepes-NaOH (pH 7.4) using a Polytron disrupter (Kinematica AG, Luzern, Switzerland) and centrifuged for 30 min at 40,000 g. (4° C.). The supernatant was discarded and the pellet washed twice by resuspension in 10 volumes 50 mM HEPES-NaOH. Membranes were then collected by centrifugation and washed before final resuspension in 10 volumes of 20 mM HEPES-NaOH, pH 7.4. Protein concentration was determined by the Bradford method (Bio-Rad protein assay, Reinach, Switzerland) with bovine serum albumin as standard.
[^3H]-MPEP Binding Experiments:
Membranes were thawed and resuspended in binding buffer containing 20 mM HEPES-NaOH, 3 mM MgCl2, 3 mM CaCl2, 100 mM NaCl, pH 7.4. Competition studies were carried out by incubating for 1 h at 4° C.: 3 nM [^3H]-MPEP (39 Ci/mmol, Tocris, Cookson Ltd, Bristol, U.K.), 50 μg membrane and a concentration range of 0.003 nM-30 μM of compounds, for a total reaction volume of 300 μl. The non-specific binding was defined using 30 μM MPEP. Reaction was terminated by rapid filtration over glass-fiber filter plates (Unifilter 96-well GF/B filter plates, Perkin-Elmer, Schwerzenbach, Switzerland) using 4×400 μl ice cold buffer using cell harvester (Filtermate, Perkin-Elmer, Downers Grove, USA). Radioactivity was determined by liquid scintillation spectrometry using a 96-well plate reader (TopCount, Perkin-Elmer, Downers Grove, USA).
The inhibition curves were generated using the Prism GraphPad program (Graph Pad Software Inc, San Diego, USA). IC50 determinations were made from data obtained from 8 point-concentration response curves using a non linear regression analysis.
The table below represents the mean of IC50 obtained from at least three independent experiments of selected molecules performed in duplicate.

T1 sequence (P31424 21-1203): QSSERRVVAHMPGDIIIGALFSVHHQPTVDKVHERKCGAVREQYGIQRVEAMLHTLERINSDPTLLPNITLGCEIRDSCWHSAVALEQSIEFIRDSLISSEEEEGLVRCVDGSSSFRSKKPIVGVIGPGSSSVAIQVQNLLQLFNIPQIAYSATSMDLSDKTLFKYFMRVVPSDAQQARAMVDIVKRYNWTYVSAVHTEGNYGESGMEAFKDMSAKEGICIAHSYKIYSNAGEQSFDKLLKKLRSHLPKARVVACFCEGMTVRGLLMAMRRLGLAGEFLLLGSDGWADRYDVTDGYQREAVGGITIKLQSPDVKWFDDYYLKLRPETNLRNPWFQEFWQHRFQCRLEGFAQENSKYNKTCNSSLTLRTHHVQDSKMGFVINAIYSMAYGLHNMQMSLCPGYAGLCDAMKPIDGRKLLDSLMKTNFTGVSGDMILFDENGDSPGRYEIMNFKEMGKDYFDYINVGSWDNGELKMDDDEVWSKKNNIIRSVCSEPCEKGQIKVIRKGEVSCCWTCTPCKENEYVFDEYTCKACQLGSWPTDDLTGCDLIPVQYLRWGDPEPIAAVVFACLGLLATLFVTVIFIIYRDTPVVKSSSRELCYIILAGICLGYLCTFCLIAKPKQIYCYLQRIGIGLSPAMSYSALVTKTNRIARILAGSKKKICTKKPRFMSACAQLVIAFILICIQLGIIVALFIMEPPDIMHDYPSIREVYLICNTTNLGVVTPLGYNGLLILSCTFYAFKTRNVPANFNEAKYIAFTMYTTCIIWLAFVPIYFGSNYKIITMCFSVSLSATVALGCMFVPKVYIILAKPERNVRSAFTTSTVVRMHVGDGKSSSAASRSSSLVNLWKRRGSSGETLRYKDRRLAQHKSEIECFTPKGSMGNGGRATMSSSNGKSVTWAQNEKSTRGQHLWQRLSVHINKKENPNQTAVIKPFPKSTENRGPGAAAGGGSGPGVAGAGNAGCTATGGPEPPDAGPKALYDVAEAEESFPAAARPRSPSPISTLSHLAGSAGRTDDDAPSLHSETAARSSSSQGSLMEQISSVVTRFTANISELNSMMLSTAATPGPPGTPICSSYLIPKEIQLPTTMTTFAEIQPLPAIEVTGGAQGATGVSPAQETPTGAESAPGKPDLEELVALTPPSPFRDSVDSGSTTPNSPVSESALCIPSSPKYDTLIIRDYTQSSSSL

Row | Structure (SMILES) | IC50
1 | Cn1ccc(C#CCCc2nc3ccccc3s2)n1 [Example 121, 2-(4-(1-Methyl-1H-pyrazol-3-yl)but-3-ynyl)benzo[d]thiazole] | < 10 µM
2 | C(#Cc1ccccn1)CCn1cc(-c2ccccc2)cn1 [Example 122, 2-(4-(4-Phenyl-1H-pyrazol-1-yl)but-1-ynyl)pyridine] | < 10 µM
3 | Clc1cccc2cn(CCC#Cc3ccccn3)nc12 [Example 123, 7-Chloro-2-(4-(pyridin-2-yl)but-3-ynyl)-2H-indazole] | < 10 µM
4 | Cc1cccc(C#CCCc2ccc3ccccc3n2)n1 [Example 128, 2-(4-(6-Methylpyridin-2-yl)but-3-ynyl)quinoline] | < 0.05 µM
5 | FCc1cccc(C#CCCn2cc3ccccc3n2)n1 [Example 133, 2-(4-(6-(Fluoromethyl)pyridin-2-yl)but-3-ynyl)-2H-indazole] | < 10 µM
6 | Fc1ccc(-c2cnn(CCC#Cc3ccccn3)c2)cc1 [Example 140, 2-(4-(4-(4-Fluorophenyl)-1H-pyrazol-1-yl)but-1-ynyl)pyridine] | < 10 µM
7 | Cc1nc(C#CCCn2nc3ccccc3n2)cs1 [Example 141, 2-(4-(2-Methylthiazol-4-yl)but-3-ynyl)-2H-benzo[d][1,2,3]triazole] | < 0.05 µM
8 | Cc1ccccc1-c1cnn(CCC#Cc2ccccn2)c1 [Example 142, 2-(4-(4-o-Tolyl-1H-pyrazol-1-yl)but-1-ynyl)pyridine] | < 10 µM
9 | Cc1ccccc1-c1cnn(CCC#Cc2cccc(CF)n2)c1 [Example 143, 2-(Fluoromethyl)-6-(4-(4-o-tolyl-1H-pyrazol-1-yl)but-1-ynyl)pyridine] | < 10 µM
10 | FCc1cccc(C#CCCn2cc(-c3ccc(F)cc3)cn2)n1 [Example 144, 2-(Fluoromethyl)-6-(4-(4-(4-fluorophenyl)-1H-pyrazol-1-yl)but-1-ynyl)pyridine] | < 10 µM
11 | FCc1cccc(C#CCCc2cnc3cc(F)ccc3n2)n1 [Example 145, 6-Fluoro-2-(4-(6-(fluoromethyl)pyridin-2-yl)but-3-ynyl)quinoxaline] | < 0.05 µM
12 | FCc1cccc(C#CCCn2nc3cccc(Cl)c3n2)n1 [Example 147, 4-Chloro-2-(4-(6-(fluoromethyl)pyridin-2-yl)but-3-ynyl)-2H-benzo[d][1,2,3]triazole] | < 0.05 µM
13 | FCc1cccc(C#CCCn2cc3c(F)cccc3n2)n1 [Example 149, 4-Fluoro-2-(4-(6-(fluoromethyl)pyridin-2-yl)but-3-ynyl)-2H-indazole] | < 0.05 µM
14 | Clc1cccc2nn(CCC#Cc3ccccn3)cc12 [Example 150, 4-Chloro-2-(4-(pyridin-2-yl)but-3-ynyl)-2H-indazole] | < 0.05 µM
15 | FCc1cccc(C#CCCn2cc3ccc(F)cc3n2)n1 [Example 151, 6-Fluoro-2-(4-(6-(fluoromethyl)pyridin-2-yl)but-3-ynyl)-2H-indazole] | < 0.05 µM
16 | FCc1cccc(C#CCCn2cc3c(Cl)cccc3n2)n1 [Example 152, 4-Chloro-2-(4-(6-(fluoromethyl)pyridin-2-yl)but-3-ynyl)-2H-indazole] | < 0.05 µM
17 | FCc1cccc(C#CCCn2cc3cccc(F)c3n2)n1 [Example 155, 7-Fluoro-2-(4-(6-(fluoromethyl)pyridin-2-yl)but-3-ynyl)-2H-indazole] | < 0.05 µM
18 | Cn1ccc(C#CCCn2nc3cccc(Cl)c3n2)n1 [Example 156, 4-Chloro-2-(4-(1-methyl-1H-pyrazol-3-yl)but-3-ynyl)-2H-benzo[d][1,2,3]triazole] | < 0.05 µM
19 | Nc1cccc(C#CCCn2nc3cc(F)cc(F)c3n2)n1 [Example 157, 6-(4-(4,6-Difluoro-2H-benzo[d][1,2,3]triazol-2-yl)but-1-ynyl)pyridin-2-amine] | < 10 µM
20 | C(#Cc1ccccn1)CCn1ccc(-c2ccccc2)n1 [Example 159, 2-(4-(3-Phenyl-1H-pyrazol-1-yl)but-1-ynyl)pyridine] | < 10 µM
21 | O=[N+]([O-])c1cccc2nn(CCC#Cc3cccc(CF)n3)nc12 [Example 161, 2-(4-(6-(Fluoromethyl)pyridin-2-yl)but-3-ynyl)-4-nitro-2H-benzo[d][1,2,3]triazole] | < 10 µM
22 | Cc1cccc2nn(CCC#Cc3cccc(CF)n3)nc12 [Example 164, 2-(4-(6-(Fluoromethyl)pyridin-2-yl)but-3-ynyl)-4-methyl-2H-benzo[d][1,2,3]triazole] | < 0.05 µM
23 | Fc1ccc(-c2ccnn2CCC#Cc2ccccn2)cc1 [Example 171, 2-(4-(5-(4-Fluorophenyl)-1H-pyrazol-1-yl)but-1-ynyl)pyridine] | < 10 µM
24 | FC(CC#Cc1ccccn1)c1cnc2ccccc2n1 (stereo not shown) [Example 172, 2-(1-Fluoro-4-(pyridin-2-yl)but-3-ynyl)quinoxaline] | < 10 µM
25 | Cc1nc(C#CCCn2nc3cccc(Cl)c3n2)cn1C [Example 176, 4-Chloro-2-(4-(1,2-dimethyl-1H-imidazol-4-yl)but-3-ynyl)-2H-benzo[d][1,2,3]triazole] | < 10 µM
26 | Cc1ccc2nn(CCC#Cc3cccc(CF)n3)nc2c1C [Example 178, 2-(4-(6-(Fluoromethyl)pyridin-2-yl)but-3-ynyl)-4,5-dimethyl-2H-benzo[d][1,2,3]triazole] | < 10 µM
27 | Cc1nc2ccccc2nc1CCC#Cc1cccc(CF)n1 [Example 181, 2-(4-(6-(Fluoromethyl)pyridin-2-yl)but-3-ynyl)-3-methylquinoxaline] | < 10 µM

Further lines, results first:

Row | IC50 | Structure (SMILES)
28 | < 10 µM | C(#Cc1ccccn1)CCCCn1nc2ccccc2n1 [Example 124, 2-(6-(Pyridin-2-yl)hex-5-ynyl)-2H-benzo[d][1,2,3]triazole]
29 | < 10 µM | Fc1ccc2nn(CCC#Cc3ccccn3)nc2c1 [Example 127, 5-Fluoro-2-(4-(pyridin-2-yl)but-3-ynyl)-2H-benzo[d][1,2,3]triazole]
30 | < 10 µM | Fc1cc(F)c2nn(CCC#Cc3ccccn3)nc2c1 [Example 135, 4,6-Difluoro-2-(4-(pyridin-2-yl)but-3-ynyl)-2H-benzo[d][1,2,3]triazole]
31 | < 10 µM | Fc1ccc2nn(CCC#Cc3ccccn3)nc2c1F [Example 136, 4,5-Difluoro-2-(4-(pyridin-2-yl)but-3-ynyl)-2H-benzo[d][1,2,3]triazole]
32 | < 0.05 µM | Cc1cccc(C#CCCn2nc3ccccc3n2)n1 [Example 137, 2-(4-(6-Methylpyridin-2-yl)but-3-ynyl)-2H-benzo[d][1,2,3]triazole]
33 | < 10 µM | Fc1cccnc1C#CCCn1nc2ccccc2n1 [Example 138, 2-(4-(3-Fluoropyridin-2-yl)but-3-ynyl)-2H-benzo[d][1,2,3]triazole]
34 | < 0.05 µM | FCc1cccc(C#CCCn2nc3ccc(F)cc3n2)n1 [Example 139, 5-Fluoro-2-(4-(6-(fluoromethyl)pyridin-2-yl)but-3-ynyl)-2H-benzo[d][1,2,3]triazole]
35 | < 0.05 µM | Clc1cccc2nn(CCC#Cc3ccccn3)nc12 [Example 146, 4-Chloro-2-(4-(pyridin-2-yl)but-3-ynyl)-2H-benzo[d][1,2,3]triazole]
36 | < 10 µM | O=[N+]([O-])c1cccc2nn(CCC#Cc3ccccn3)nc12 [Example 160, 4-Nitro-2-(4-(pyridin-2-yl)but-3-ynyl)-2H-benzo[d][1,2,3]triazole]
37 | < 0.05 µM | Cc1cccc2nn(CCC#Cc3ccccn3)nc12 [Example 163, 4-Methyl-2-(4-(pyridin-2-yl)but-3-ynyl)-2H-benzo[d][1,2,3]triazole]
38 | < 0.05 µM | Cc1ccc2nn(CCC#Cc3cccc(CF)n3)nc2c1 [Example 165, 2-(4-(6-(Fluoromethyl)pyridin-2-yl)but-3-ynyl)-5-methyl-2H-benzo[d][1,2,3]triazole]
39 | < 0.5 µM | Cc1ccc2nn(CCC#Cc3ccccn3)nc2c1 [Example 166, 5-Methyl-2-(4-(pyridin-2-yl)but-3-ynyl)-2H-benzo[d][1,2,3]triazole]
40 | < 10 µM | O=CNc1cccc(C#CCCn2nc3ccccc3n2)n1 [Example 175, N-(6-(4-(2H-Benzo[d][1,2,3]triazol-2-yl)but-1-ynyl)pyridin-2-yl)formamide]
41 | < 10 µM | Cc1ccc2nn(CCC#Cc3ccccn3)nc2c1C [Example 177, 4,5-Dimethyl-2-(4-(pyridin-2-yl)but-3-ynyl)-2H-benzo[d][1,2,3]triazole]
42 | < 10 µM | Clc1cccc(C#CCCn2nc3ccccc3n2)n1 [Example 180, 2-(4-(6-Chloropyridin-2-yl)but-3-ynyl)-2H-benzo[d][1,2,3]triazole]
43 | < 10 µM | CC(F)c1cccc(C#CCCn2nc3ccccc3n2)n1 (stereo not shown) [Example 182, 2-(4-(6-(1-Fluoroethyl)pyridin-2-yl)but-3-ynyl)-2H-benzo[d][1,2,3]triazole]
